According to patent US20220281848A1, “PYRAZOLE-SUBSTITUTED PYRROLIDINONES AS HERBICIDES” (FMC Corporation, priority 2019, published 2022):

Tested on: plants
Assay: Test D pre-emergence, other plants of Tables D1 and D3
Assay type: in vivo
Conditions: for damage to plant (100=total damage to plant; 0=no damage to plant), SORVU: preemergent, 20 DAA; for damage to plant, ALOMY / damage to plant, AVEFA / damage to plant, BEAVA / damage to plant, BROTE / damage to plant, BRSNN / damage to plant, CHEAL / damage to plant, GALAP / damage to plant, HORVW / damage to plant, KCHSC / damage to plant, LOLPE / damage to plant, POAAN / damage to plant, POLCO / damage to plant, SINAR / damage to plant, STEME / damage to plant, VERPE: pre-emergence, 100=total damage, 0=no damage
Procedure: A formulation containing 50 g/L of the test chemical was prepared by dissolving the active ingredient in a mixture of organic solvents and emulsifier, details of which are provided in the table. This formulation was then mixed with a small, variable amount of acetone to aid dissolution, before addition of a 0.2% v/v aqueous solution of an adjuvant, as the aqueous diluent, to form an aqueous spray solution which contains a predetermined concentration of the active ingredient.
This aqueous spray solution was then sprayed onto plants including maize and wheat that had been seed treated with a herbicide safener, after one day's cultivation (for pre-emergence) or after about 12 days' cultivation (for post-emergence). The plants were grown from seeds sown in standard soil, placed in a glasshouse under controlled conditions (at 24/18° C. or 20/16° C., day/night; 16 h light; 65% humidity). After spray application the plants were then grown in a glasshouse under the same conditions and watered twice daily. After 15 d for post-emergence and 20 DAA for pre-emergence the test was evaluated (100=total damage to plant; 0=no damage to plant).

CCn1nc([C@H]2CN(C)C(=O)[C@@H]2C(=O)Nc2cccc(F)c2F)c2cc(F)ccc21 [Compound 8]
30: damage to plant (100=total damage to plant; 0=no damage to plant), SORVU (rate 500)
20: damage to plant (100=total damage to plant; 0=no damage to plant), SORVU (rate 250)
60: damage to plant, POAAN (rate 500, 20 DAA)
10: damage to plant, ALOMY (rate 500, 20 DAA) | damage to plant, AVEFA (rate 500, 20 DAA) | damage to plant, BRSNN (rate 500, 20 DAA) | damage to plant, HORVW (rate 500, 20 DAA)
0: damage to plant, ALOMY (rate 15, 20 DAA) | damage to plant, AVEFA (rate 15, 20 DAA) | damage to plant, BEAVA (rate 15, 20 DAA) | damage to plant, BROTE (rate 15, 20 DAA) | damage to plant, BRSNN (rate 15, 20 DAA) | damage to plant, CHEAL (rate 15, 20 DAA) | damage to plant, GALAP (rate 15, 20 DAA) | damage to plant, HORVW (rate 15, 20 DAA) | damage to plant, KCHSC (rate 15, 20 DAA) | damage to plant, LOLPE (rate 15, 20 DAA) | damage to plant, POAAN (rate 15, 20 DAA) | damage to plant, POLCO (rate 15, 20 DAA) | damage to plant, SINAR (rate 15, 20 DAA) | damage to plant, STEME (rate 15, 20 DAA) | damage to plant, VERPE (rate 15, 20 DAA) | damage to plant, ALOMY (rate 30, 20 DAA) | damage to plant, AVEFA (rate 30, 20 DAA) | damage to plant, BEAVA (rate 30, 20 DAA) | damage to plant, BROTE (rate 30, 20 DAA) | damage to plant, BRSNN (rate 30, 20 DAA) | damage to plant, CHEAL (rate 30, 20 DAA) | damage to plant, GALAP (rate 30, 20 DAA) | damage to plant, HORVW (rate 30, 20 DAA) | damage to plant, KCHSC (rate 30, 20 DAA) | damage to plant, LOLPE (rate 30, 20 DAA) | damage to plant, POAAN (rate 30, 20 DAA) | damage to plant, POLCO (rate 30, 20 DAA) | damage to plant, SINAR (rate 30, 20 DAA) | damage to plant, STEME (rate 30, 20 DAA) | damage to plant, VERPE (rate 30, 20 DAA) | damage to plant, ALOMY (rate 60, 20 DAA) | damage to plant, AVEFA (rate 60, 20 DAA) | damage to plant, BEAVA (rate 60, 20 DAA) | damage to plant, BROTE (rate 60, 20 DAA) | damage to plant, BRSNN (rate 60, 20 DAA) | damage to plant, CHEAL (rate 60, 20 DAA) | damage to plant, GALAP (rate 60, 20 DAA) | damage to plant, HORVW (rate 60, 20 DAA) | damage to plant, KCHSC (rate 60, 20 DAA) | damage to plant, LOLPE (rate 60, 20 DAA) | damage to plant, POAAN (rate 60, 20 DAA) | damage to plant, POLCO (rate 60, 20 DAA) | damage to plant, SINAR (rate 60, 20 DAA) | damage to plant, STEME (rate 60, 20 DAA) | damage to plant, VERPE (rate 60, 20 DAA) | damage to plant, ALOMY (rate 130, 20 DAA) | damage to plant, AVEFA (rate 130, 20 DAA) | damage to plant, BEAVA (rate 130, 20 DAA) | damage to plant, BROTE (rate 130, 20 DAA) | damage to plant, BRSNN (rate 130, 20 DAA) | damage to plant, CHEAL (rate 130, 20 DAA) | damage to plant, GALAP (rate 130, 20 DAA) | damage to plant, HORVW (rate 130, 20 DAA) | damage to plant, KCHSC (rate 130, 20 DAA) | damage to plant, LOLPE (rate 130, 20 DAA) | damage to plant, POAAN (rate 130, 20 DAA) | damage to plant, POLCO (rate 130, 20 DAA) | damage to plant, SINAR (rate 130, 20 DAA) | damage to plant, STEME (rate 130, 20 DAA) | damage to plant, VERPE (rate 130, 20 DAA) | damage to plant, ALOMY (rate 250, 20 DAA) | damage to plant, AVEFA (rate 250, 20 DAA) | damage to plant, BEAVA (rate 250, 20 DAA) | damage to plant, BROTE (rate 250, 20 DAA) | damage to plant, BRSNN (rate 250, 20 DAA) | damage to plant, CHEAL (rate 250, 20 DAA) | damage to plant, GALAP (rate 250, 20 DAA) | damage to plant, HORVW (rate 250, 20 DAA) | damage to plant, KCHSC (rate 250, 20 DAA) | damage to plant, LOLPE (rate 250, 20 DAA) | damage to plant, POAAN (rate 250, 20 DAA) | damage to plant, POLCO (rate 250, 20 DAA) | damage to plant, SINAR (rate 250, 20 DAA) | damage to plant, STEME (rate 250, 20 DAA) | damage to plant, VERPE (rate 250, 20 DAA) | damage to plant, BEAVA (rate 500, 20 DAA) | damage to plant, BROTE (rate 500, 20 DAA) | damage to plant, CHEAL (rate 500, 20 DAA) | damage to plant, GALAP (rate 500, 20 DAA) | damage to plant, KCHSC (rate 500, 20 DAA) | damage to plant, LOLPE (rate 500, 20 DAA) | damage to plant, POLCO (rate 500, 20 DAA) | damage to plant, SINAR (rate 500, 20 DAA) | damage to plant, STEME (rate 500, 20 DAA) | damage to plant, VERPE (rate 500, 20 DAA)
